From publication PMC7574619, “Engineering of NADPH Supply Boosts Photosynthesis-Driven Biotransformations” (ACS Catalysis, 2020)

Biological target: T1, YqjM (Bacillus subtilis, UniProt P54550)
T1 construct: gene namA; purified YqjM flavoenzyme
T1 sequence (P54550 2-338): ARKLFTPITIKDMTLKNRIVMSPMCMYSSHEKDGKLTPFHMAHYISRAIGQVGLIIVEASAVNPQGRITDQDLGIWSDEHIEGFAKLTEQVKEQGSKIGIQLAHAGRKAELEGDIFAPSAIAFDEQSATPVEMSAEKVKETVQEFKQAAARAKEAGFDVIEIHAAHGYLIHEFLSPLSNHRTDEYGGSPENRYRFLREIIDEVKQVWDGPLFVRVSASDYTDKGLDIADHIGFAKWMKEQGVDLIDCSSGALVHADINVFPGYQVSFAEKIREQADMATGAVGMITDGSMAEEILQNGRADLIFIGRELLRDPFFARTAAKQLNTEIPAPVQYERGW
Assay: stopped-flow, flavin reduction at […] nm, anaerobic
Format: biochemical
Conditions: Tris-HCl 50 mM, pH 7.5, 25 °C; 25 μM YqjM; reductive half reaction

Kd [µM]	Structure (SMILES)
140 ± 24.5	NC(=O)C1=CN([C@@H]2O[C@H](COP(=O)(O)OP(=O)(O)OC[C@H]3O[C@@H](n4cnc5c(N)ncnc54)[C@H](O)[C@@H]3O)[C@@H](O)[C@H]2O)C=CC1 [NADH]
39.8 ± 7.1	NC(=O)C1=CN([C@@H]2O[C@H](COP(=O)(O)OP(=O)(O)OC[C@H]3O[C@@H](n4cnc5c(N)ncnc54)[C@H](OP(=O)(O)O)[C@@H]3O)[C@@H](O)[C@H]2O)C=CC1 [NADPH]
